{"source": "patent US20030207933A1", "about": "“Compositions and methods for increasing the sensitivity of apoptosis-resistant tumor cells to inducers of apoptosis” (priority 2002, published 2003)", "key": {"HL-60 Bcl-2 cells": {"test_system": "HL-60 Bcl-2 cells", "assay": "DNA fragmentation (release of 3H-labeled DNA fragments) in Bcl-2-transfected HL-60 cells", "assay_type": "cell-based, human"}, "HL-60 neo cells": {"test_system": "HL-60 neo cells", "assay": "DNA fragmentation (release of 3H-labeled DNA fragments) in vector control HL-60 neo cells", "assay_type": "cell-based, human", "conditions": "neo cell lines (HL-60 neo, PW neo); compound added to inducers", "description": "The present study evaluated the ability of W-188 to sensitize Bcl-2-overexpressing cells to induce apoptosis. The human myelogenous leukemia, HL-60, and the human B cell leukemia, PW, normally express very low levels of Bcl-2. As a model system, W-188 and various analogs and derivatives were tested in normal HL-60 and PW cells and in Bcl-2-transfected HL-60 and PW cells that overexpress high levels of Bcl-2 (see Gilbert et al., J. Cell Physiol., 1996, 171:299).\nAs depicted in FIG. 4, HL-60 cells (Panel A) and PW cells (Panel B) cells were exposed to various apoptosis inducers: TNF at 5 ng/ml; etoposide at 20 μM; and UV at 0.08 J/cm^2. The release of 3H-labeled DNA fragments was measured after 5 h. Normal HL-60 and PW cells were equally sensitive to apoptosis inducers as compared with cells that were transfected with vector encoding neomycin resistance (HL-60 neo and PW neo) only. […] W-188 alone was nontoxic. The addition of W-188 to the neo cell lines caused a 1.5-2 fold increase in DNA fragmentation in response to the various apoptosis inducers."}, "AP24": {"test_system": "AP24", "assay": "Etoposide-induced activation of AP24 (AAPVase) in HL-60 and PW leukemia lines", "assay_type": "cell-based, human", "conditions": "for AP24 Activity (AAPVase, nmol/mg/hr): etoposide 50 μM + W-188 5 μg/ml, 3 h"}, "[1]": {"test_system": "Nuclei from HL-60 Bcl-2 cells", "assay": "AP24-induced DNA fragmentation in nuclei isolated from pretreated cells", "assay_type": "cell-based, human", "conditions": "for % DNA Fragmentation: cells incubated with W-188 5 μg/ml 4 hr, 20 hr assay", "text": "Nuclei isolated from HL-60-Bcl-2 cells were resistant to AP24-induced DNA fragmentation, as expected (Wright, S. C., et al., Cancer Res., 1998, 58:5570)."}, "HS-treated U937 cells": {"test_system": "HS-treated U937 cells", "assay": "DNA fragmentation in heat shock-treated U937 cells", "assay_type": "cell-based", "description": "U937 cells received either no heat shock (HS) treatment or HS treatment at 42° C. for 30 min followed by recovery for 3 hr. The cells were then treated with etoposide or TNF with and without W-188, which alone was nontoxic. After 3 hr, DNA fragmentation was measured by release of ^3H-labeled DNA. As expected, U937 cells exposed to HS treatment were completely resistant to etoposide or TNF-induced DNA fragmentation (FIG. 7)."}, "bFGF-treated U937 cells": {"test_system": "bFGF-treated U937 cells", "assay": "DNA fragmentation in bFGF-treated U937 cells", "assay_type": "cell-based", "conditions": "1 ng/ml bFGF 20 h pretreatment; FIG. 9", "description": "Another means by which cells may evade apoptosis is by treatment with various growth factors. To assess the ability of W-188 to reverse the apoptosis resistance induced by growth factors, U937 cells were treated ±1 ng/ml basic fibroblast growth factor (bFGF) for 20 h, then exposed to etoposide or TNF and DNA fragmentation measured."}, "HL-60-Bcl-2 cells": {"test_system": "HL-60-Bcl-2 cells", "assay": "10 day colony formation assay, HL-60-Bcl-2", "assay_type": "cell-based, human", "conditions": "not shown", "text": "(§1) LY-ar was highly resistant to apoptosis induced by y-radiation. […] The apparent selective effects of W-188 may be due to the preferential intracellular accumulation of porphyrin compounds in transformed cells as opposed to normal cells reported previously (Bugelski, P. J., et al., Cancer Res., 1981, 41:4606)."}, "LY-ar cells": {"test_system": "LY-ar cells", "assay": "10 day colony formation assay, LY-ar", "assay_type": "cell-based, murine", "conditions": "not shown", "text": "as §1"}, "overexpression of Bcl-2": {"test_system": "overexpression of Bcl-2", "assay": "Comparison with compounds reported to counteract Bcl-2", "assay_type": "cell-based", "conditions": "at 2.5 [M; data not shown", "text": "W-188 was then compared to other compounds previously reported to counteract Bcl-2 (Marchetti, P., et al., J. Immunol., 1996, 157:4830; Hirsch, T., et al., Exp. Cell Res., 1998, 241:426)."}, "GSH": {"test_system": "GSH", "assay": "Intracellular GSH levels", "assay_type": "cell-based", "text": "(§2) However, more recent findings indicate that W-188 may also downregulate expression of endogenous Bcl-2 in cells that naturally have high levels of this protein."}, "caspase 3": {"test_system": "caspase 3", "assay": "Caspase 3 activity (DEVDase)", "assay_type": "cell-based", "text": "as §2"}, "Bcl-2": {"test_system": "Bcl-2", "assay": "Expression of Bcl-2 protein in HL-60-Bcl-2 cells", "assay_type": "cell-based, human", "conditions": "W-188 + etoposide / chemotherapeutic drugs, in vitro"}, "HL-60 cells": {"test_system": "HL-60 cells", "assay": "Subcellular distribution of W-188 in HL-60 cells (absorbance at 380 nm)", "assay_type": "in vitro ADME, human", "description": "(§3) A method to measure the subcellular localization of this compound was developed by the inventors of the present invention. Because of its distinctive absorbance spectrum, W-188 can be detected in cell and tissue extracts by measuring absorbance at 380 nm, and quantitated relative to a standard curve constructed with known amounts of W-188. HL-60 and PW cells containing vector control or overexpressing Bcl-2 were incubated with W-188 followed by cell lysis and isolation of nuclei, mitochondria, and cytotol by differential centrifugation.\n(§4) Furthermore, it can be seen that nuclei and mitochondria from cells overexpressing Bcl-2 accumulated higher levels of W-188 than the vector control cells. These findings are consistent with the hypothesis that W-188 may counteract the protective effects of Bcl-2 mediated at both the mitochondria as well as the nucleus."}, "PW cells": {"test_system": "PW cells", "assay": "Subcellular distribution of W-188 in PW cells (absorbance at 380 nm)", "assay_type": "in vitro ADME, human", "description": "as §3, §4"}, "[2]": {"assay": "Body weight of RIF-1 tumor bearing mice", "quoted_text": "Groups of five mice each were inoculated s.c. with RIF-1 cells. The tumors were allowed to grow for 12 days to a size of 0.5 cm diameter, which was designated day 0. […] The mice were weighed and the tumor size measured every day."}, "[3]": {"conditions": "W-188 + etoposide, HL-60-Bcl-2 and LY-ar cells"}}, "data": [{"smiles": "CCC1=C(C)C(/C=C2\\NC(=O)C(C)=C2CC)=NC/1=C\\c1[nH]c(/C=C2\\NC(=O)C(C)=C2CC)c(C)c1CC", "note": "[W-188, etiobiliverdin-IV]", "values": [{"measurement": "% DNA Fragmentation", "setting": "HL-60 Bcl-2 cells; Exp 1, etoposide 5 μM + compound 5 μM", "value": 40, "unit": "%"}, {"measurement": "% DNA Fragmentation", "setting": "HL-60 Bcl-2 cells; Exp 1, etoposide 5 μM + compound 10 μM", "value": 76, "unit": "%"}, {"measurement": "% DNA Fragmentation", "setting": "HL-60 Bcl-2 cells; Exp 2, etoposide 10 μM + compound 10 μM", "value": 62, "unit": "%"}, {"measurement": "% DNA Fragmentation", "setting": "HL-60 Bcl-2 cells; Exp 3, etoposide 5 μM + compound 10 μM", "value": 92, "unit": "%"}, {"measurement": "% DNA Fragmentation", "setting": "HL-60 Bcl-2 cells; Exp 4, etoposide 5 μM + compound 10 μM", "value": 59, "unit": "%"}, {"measurement": "% DNA Fragmentation", "setting": "HL-60 Bcl-2 cells; Exp 5, etoposide 10 μM + compound 10 μM", "value": 55, "unit": "%"}, {"measurement": "Sensitization to DNA fragmentation induced by TNF, etoposide and UV light", "setting": "HL-60 Bcl-2 cells; TNF 5 ng/ml, etoposide 20 μM, UV 0.08 J/cm^2, 5 h, FIG. 4A", "value": "dose-dependently sensitized HL-60 Bcl-2 cells to DNA fragmentation induced by all three agents"}, {"measurement": "Optimal doses giving DNA fragmentation comparable with HL-60 neo cells", "setting": "HL-60 Bcl-2 cells; TNF, etoposide or UV, 5 h", "value": "25 to 50", "unit": "µg/mL"}, {"measurement": "Toxicity of compound alone", "setting": "HL-60 Bcl-2 cells; W-188 alone, no apoptosis inducer", "value": "nontoxic"}, {"measurement": "Bcl-2-sensitizing activity (in words)", "setting": "HL-60 Bcl-2 cells; tumor cells overexpressing Bcl-2, Table 4", "value": "most potent"}, {"measurement": "Increase in DNA fragmentation in response to apoptosis inducers", "setting": "HL-60 neo cells", "value": "1.5-2 fold"}, {"measurement": "Activation of AP24 (in words)", "setting": "AP24; HL-60-Bcl-2 and PW-Bcl-2 exposed to apoptosis inducers", "value": "did not activate AP24 unless they were also treated with W-188"}, {"measurement": "AP24 Activity (AAPVase, nmol/mg/hr)", "setting": "AP24; HL-60 Bcl-2", "value": 124, "unit": "nmol/mg/h"}, {"measurement": "AP24 Activity (AAPVase, nmol/mg/hr)", "setting": "AP24; PW Bcl-2", "value": 129, "unit": "nmol/mg/h"}, {"measurement": "% DNA Fragmentation", "setting": "[1]; AP24 dilution 1:10", "value": "44 ± 4.8", "unit": "%"}, {"measurement": "% DNA Fragmentation", "setting": "[1]; AP24 dilution 1:20", "value": "19 ± 1.0", "unit": "%"}, {"measurement": "Sensitivity of isolated nuclei to AP24-induced DNA fragmentation (in words)", "setting": "[1]; pretreatment of HL-60-Bcl-2 cells", "value": "restored the sensitivity of the isolated nuclei to AP24-induced DNA fragmentation"}, {"measurement": "Etoposide or TNF-induced DNA fragmentation after HS treatment", "setting": "HS-treated U937 cells; HS 42° C. 30 min, recovery 3 hr, 3 hr assay, FIG. 7", "value": "levels of etoposide or TNF-induced DNA fragmentation comparable to that seen in normal U937 cells"}, {"measurement": "Toxicity of compound alone", "setting": "HS-treated U937 cells; W-188 alone", "value": "nontoxic"}, {"measurement": "Reversal of bFGF-induced resistance to etoposide or TNF-induced DNA fragmentation", "setting": "bFGF-treated U937 cells", "value": "completely reversed resistance to apoptosis"}, {"measurement": "Sensitization to cell death mediated by etoposide and chlorambucil", "setting": "HL-60-Bcl-2 cells", "value": "sensitized HL-60-Bcl-2 and LY-ar cells to cell death mediated by etoposide and chlorambucil"}, {"measurement": "Sensitization to cell death mediated by etoposide and chlorambucil", "setting": "LY-ar cells", "value": "sensitized HL-60-Bcl-2 and LY-ar cells to cell death mediated by etoposide and chlorambucil"}, {"measurement": "Reversal of the effect of overexpression of Bcl-2", "setting": "overexpression of Bcl-2", "value": "completely reversed the effect of overexpression of Bcl-2"}, {"measurement": "Intracellular levels of GSH", "setting": "GSH; [3]", "value": "caused depletion of GSH"}, {"measurement": "Intracellular levels of GSH", "setting": "GSH; W-188 alone", "value": "did not affect intracellular levels of GSH or caspase 3 activity"}, {"measurement": "Caspase 3 activity (DEVDase)", "setting": "caspase 3; [3]", "value": "activation of caspase 3"}, {"measurement": "Caspase 3 activity (DEVDase)", "setting": "caspase 3; W-188 alone", "value": "did not affect intracellular levels of GSH or caspase 3 activity"}, {"measurement": "Expression of Bcl-2 protein", "setting": "Bcl-2", "value": "did not downregulate the expression of Bcl-2 protein"}, {"measurement": "W-188 (μg/mg protein), Cytosol", "setting": "HL-60 cells; HL-60 Bcl-2", "value": 0.25, "unit": "μg/mg protein"}, {"measurement": "W-188 (μg/mg protein), Mitochondria", "setting": "HL-60 cells; HL-60 Bcl-2", "value": 10.0, "unit": "μg/mg protein"}, {"measurement": "W-188 (μg/mg protein), Nuclei", "setting": "HL-60 cells; HL-60 Bcl-2", "value": 186, "unit": "μg/mg protein"}, {"measurement": "W-188 (μg/mg protein), Cytosol", "setting": "HL-60 cells; HL-60 neo", "value": 0, "unit": "μg/mg protein"}, {"measurement": "W-188 (μg/mg protein), Mitochondria", "setting": "HL-60 cells; HL-60 neo", "value": 3.3, "unit": "μg/mg protein"}, {"measurement": "W-188 (μg/mg protein), Nuclei", "setting": "HL-60 cells; HL-60 neo", "value": 100, "unit": "μg/mg protein"}, {"measurement": "W-188 (μg/mg protein), Cytosol", "setting": "PW cells; PW Bcl-2", "value": 0, "unit": "μg/mg protein"}, {"measurement": "W-188 (μg/mg protein), Mitochondria", "setting": "PW cells; PW Bcl-2", "value": 4.5, "unit": "μg/mg protein"}, {"measurement": "W-188 (μg/mg protein), Nuclei", "setting": "PW cells; PW Bcl-2", "value": 166, "unit": "μg/mg protein"}, {"measurement": "W-188 (μg/mg protein), Cytosol", "setting": "PW cells; PW neo", "value": 0, "unit": "μg/mg protein"}, {"measurement": "W-188 (μg/mg protein), Mitochondria", "setting": "PW cells; PW neo", "value": 2.5, "unit": "μg/mg protein"}, {"measurement": "W-188 (μg/mg protein), Nuclei", "setting": "PW cells; PW neo", "value": 133, "unit": "μg/mg protein"}, {"measurement": "Body weight", "setting": "[2]; W-188 + Dox 5 mg/kg, FIG. 12", "value": "did lose weight, but not much more than those mice treated with Dox 5 mg/kg alone"}, {"measurement": "Body weight", "setting": "[2]; W-188 alone, data not shown", "value": "did not show any decrease in weight"}]}]}
